Reference: paper PMC9822036, “Virtual Screening, Synthesis, and Biological Evaluation of Some Carbohydrazide Derivatives as Potential DPP-IV Inhibitors” (Molecules, 2022)

What was measured:
[1] = target: T1, DPP-IV enzyme (Homo sapiens, UniProt P27487); assay: In vitro DPP-IV enzymatic assay; format: biochemical; conditions: means of three independent determinations
T1 construct: purchased Cayman Chemical (only as the URL of the kit insert) 700210
From the text: The prepared compounds were investigated in vitro for their ability to inhibit the DPP-IV enzyme, and the detailed method is already described in our previously published paper.

[2] = system: rats; assay: Acute toxicity studies (OECD guideline 423); format: in vivo; conditions: oral, 500 mg/kg body weight, monitored for 72 h
Procedure: Acute toxicity studies were performed as per the OECD guideline 423. For compounds 1b, 4c, and 5b, three groups of six rats weighing 80–120 g were starved overnight and given the test compounds orally at doses of 200, 500, 1000, and 2000 mg/kg body weight. The animals were monitored for 72 h, for symptoms of acute toxicity, such as increased or reduced motor activity, tremors, convulsions, and drowsiness, among others. […] As a result, the OECD-recommended dosage for assessing the antidiabetic action was set at 50 mg/kg (i.e., […]).

[3] = system: STZ-induced diabetic rats; assay: In vivo antidiabetic activity, STZ-induced T2DM model, fasting blood glucose; design: species or system Wistar rats; conditions: compounds 50 mg/kg, sitagliptin 10 mg/kg, daily for 21 days, six rats
From the text: The antihyperglycemic potential of certain compounds was investigated in Wistar rats. STZ-induced diabetic rats were employed for the antihyperglycemic testing. The animal experiments were approved by the Institutional Animal Ethics Committee (IAEC) in New Delhi, India (Protocol Number: IAEC/MCP/009/2020). During the research period, the Committee for the Purpose of Control and Supervision of Experiments on Animals (CPCSEA) and IAEC criteria for animal care were followed.
Rats were given a high-fat diet after one week of acclimation. Diabetes was induced in the animals as per the method each described in [25]. Rats were then divided into six groups with six animals. Group I served as normal control with normal rats receiving the vehicle only. Group II served as diabetes control in which rats received the vehicle only. […] Groups IV, V, and VI served as test groups and received compounds 1b, 5b, and 4c, respectively, at doses of 50 mg/kg b.w. The diabetic rats were given the tested compound suspended in 0.5% w/v CMC every day for 21 days. On days 1, 7, 14, and 21, blood samples were taken from the tail veins of each animal that had fasted overnight. A glucometer was used to measure blood glucose levels.

[4] = system: ob/ob mice; conditions: 10 mg/kg p.o., cited from earlier work

T1 sequence (P27487 whole entry): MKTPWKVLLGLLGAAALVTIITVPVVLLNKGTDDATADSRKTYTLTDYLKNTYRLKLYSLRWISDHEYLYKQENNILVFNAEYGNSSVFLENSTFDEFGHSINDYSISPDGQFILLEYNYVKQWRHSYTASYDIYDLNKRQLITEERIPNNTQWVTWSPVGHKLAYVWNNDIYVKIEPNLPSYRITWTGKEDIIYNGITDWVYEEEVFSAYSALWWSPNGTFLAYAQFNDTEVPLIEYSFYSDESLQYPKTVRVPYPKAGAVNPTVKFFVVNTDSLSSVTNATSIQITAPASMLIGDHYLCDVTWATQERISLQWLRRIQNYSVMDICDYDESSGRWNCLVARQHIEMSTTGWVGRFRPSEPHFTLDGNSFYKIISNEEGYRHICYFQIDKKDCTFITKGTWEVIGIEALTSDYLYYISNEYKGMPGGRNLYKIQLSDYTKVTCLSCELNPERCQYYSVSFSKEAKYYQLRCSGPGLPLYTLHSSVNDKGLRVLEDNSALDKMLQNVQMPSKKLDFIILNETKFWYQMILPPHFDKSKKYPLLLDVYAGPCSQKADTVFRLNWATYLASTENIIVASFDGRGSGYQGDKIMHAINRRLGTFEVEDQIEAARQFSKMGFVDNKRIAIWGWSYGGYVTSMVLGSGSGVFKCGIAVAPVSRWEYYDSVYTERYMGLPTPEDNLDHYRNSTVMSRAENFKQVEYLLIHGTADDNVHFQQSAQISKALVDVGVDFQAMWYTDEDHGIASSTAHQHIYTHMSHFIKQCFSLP

Structure (SMILES)	inhibition at 50 µM [1] [%]	IC50 [1] [µM]	other results
CC1=C(C(=O)N/N=C/c2ccccc2)C(c2ccccc2)NC(=O)N1 (stereo not shown) [Compound 1a, (E)-N-Benzylidene-6-methyl-2-oxo-4-phenyl-1,2,3,4-tetrahydropyrimidine-5-carbohydrazide]	40.74 ± 0.38	58.95 ± 0.0012	
CC1=C(C(=O)N/N=C/c2ccccc2O)C(c2ccccc2)NC(=O)N1 (stereo not shown) [Compound 1b, (E)-N-(2-Hydroxybenzylidene)-6-methyl-2-oxo-4-phenyl-1,2,3,4-tetrahydropyrimidine-5-carbohydrazide]	42.69 ± 0.28	54.73 ± 0.0025	Acute toxicity, mortality [2]: more than half of the animals died; Fasting Blood Glucose ± SEM, On Day 1 [3]: 261.00 ± 8.44 mg/dL; Fasting Blood Glucose ± SEM, On Day 7 [3]: 215.03 ± 3.29 mg/dL; Fasting Blood Glucose ± SEM, On Day 14 [3]: 187.05 ± 6.48 mg/dL; Fasting Blood Glucose ± SEM, On Day 21 [3]: 160.12 ± 6.18 mg/dL
COc1ccccc1/C=N/NC(=O)C1=C(C)NC(=O)NC1c1ccccc1 (stereo not shown) [Compound 1c, (E)-N-(2-Methoxybenzylidene)-6-methyl-2-oxo-4-phenyl-1,2,3,4-tetrahydropyrimidine-5-carbohydrazide]	56.47 ± 0.37	39.72 ± 0.0027	
COc1ccc(/C=N/NC(=O)C2=C(C)NC(=O)NC2c2ccccc2)cc1 (stereo not shown) [Compound 1d, (E)-N-(4-Methoxybenzylidene)-6-methyl-2-oxo-4-phenyl-1,2,3,4-tetrahydropyrimidine-5-carbohydrazide]	57.74 ± 0.38	38.26 ± 0.005	
CC1=C(C(=O)N/N=C/c2ccccc2)C(c2ccccc2Cl)NC(=O)N1 (stereo not shown) [Compound 2a, (E)-N-Benzylidene-4-(2-chlorophenyl)-6-methyl-2-oxo-1,2,3,4-tetrahydropyrimidin-5-carbohydrazide]	61.25 ± 0.16	32.41 ± 0.0033	
CC1=C(C(=O)N/N=C/c2ccccc2O)C(c2ccccc2Cl)NC(=O)N1 (stereo not shown) [Compound 2b, (E)-4-(2-Chlorophenyl)-N-(2-hydroxybenzylidene)-6-methyl-2-oxo-1,2,3,4-tetrahydropyrimidine-5-carbohydrazide]	65.5 ± 0.08	31.93 ± 0.0029	
COc1ccccc1/C=N/NC(=O)C1=C(C)NC(=O)NC1c1ccccc1Cl (stereo not shown) [Compound 2c, (E)-4-(2-Chlorophenyl)-N-(2-methoxybenzylidene)-6-methyl-2-oxo-1,2,3,4-tetrahydropyrimidine-5-carbohydrazide]	63.25 ± 0.05	33.97 ± 0.0025	
COc1ccc(/C=N/NC(=O)C2=C(C)NC(=O)NC2c2ccccc2Cl)cc1 (stereo not shown) [Compound 2d, (E)-4-(2-Chlorophenyl)-N-(4-methoxybenzylidene)-6-methyl-2-oxo-1,2,3,4-tetrahydropyrimidine-5-carbohydrazide]	64.78 ± 0.33	31.72 ± 0.0021	
CC1=C(C(=O)N/N=C/c2ccccc2)C(c2ccc(Cl)cc2Cl)NC(=O)N1 (stereo not shown) [Compound 3a, (E)-N-Benzylidene-4-(2,4-dichlorophenyl)-6-methyl-2-oxo-1,2,3,4-tetrahydropyrimidine-5-carbohydrazide]	61.25 ± 0.16	33.91 ± 0.0029	
CC1=C(C(=O)N/N=C/c2ccccc2O)C(c2ccc(Cl)cc2Cl)NC(=O)N1 (stereo not shown) [Compound 3b, (E)--4-(2,4-Dichlorophenyl)-N-(2-hydroxybenzyldene)-6-methyl-2-oxo-1,2,3,4-tetrahydropyrimidine-5-carbohydrazide]	61 ± 0.08	33.79 ± 0.0021	
COc1ccccc1/C=N/NC(=O)C1=C(C)NC(=O)NC1c1ccc(Cl)cc1Cl (stereo not shown) [Compound 3c]	61 ± 0.08	33.73 ± 0.0024	
CC1=C(C(=O)N/N=C/c2ccccc2)C(c2ccccc2F)NC(=O)N1 (stereo not shown) [Compound 4a]	64.78 ± 0.33	30.47 ± 0.0025	
CC1=C(C(=O)N/N=C/c2ccccc2O)C(c2ccccc2F)NC(=O)N1 (stereo not shown) [Compound 4b, (E)--4-(2-Fluorophenyl)-N-(2-hydroxybenzyldene)-6-methyl-2-oxo-1,2,3,4-tetrahydropyrimidine-5-carbohydrazide]	63.8 ± 0.16	31.75 ± 0.0027	
COc1ccccc1/C=N/NC(=O)C1=C(C)NC(=O)NC1c1ccccc1F (stereo not shown) [Compound 4c, (E)--4-(2-Fluorophenyl)-N-(2-methoxybenzyldene)-6-methyl-2-oxo-1,2,3,4-tetrahydropyrimidine-5-carbohydrazide]	60.4 ± 0.08	34.94 ± 0.0016	Acute toxicity, mortality [2]: more than half of the animals died; Fasting Blood Glucose ± SEM, On Day 1 [3]: 264.66 ± 5.70 mg/dL; Fasting Blood Glucose ± SEM, On Day 7 [3]: 237.16 ± 9.01 mg/dL; Fasting Blood Glucose ± SEM, On Day 14 [3]: 194.83 ± 4.81 mg/dL; Fasting Blood Glucose ± SEM, On Day 21 [3]: 169.66 ± 8.53 mg/dL
COc1ccc(/C=N/NC(=O)C2=C(C)NC(=O)NC2c2ccccc2F)cc1 (stereo not shown) [Compound 4d, (E)--4-(2-Fluorophenyl)-N-(4-methoxybenzyldene)-6-methyl-2-oxo-1,2,3,4-tetrahydropyrimidine-5-carbohydrazide]	57.74 ± 0.38	38.62 ± 0.0025	
CC1=C(C(=O)N/N=C/c2ccccc2)C(c2ccc(F)cc2F)NC(=O)N1 (stereo not shown) [Compound 5a, (E)-N-Benzylidene-4-(2,4-difluorophenyl)-6-methyl-2-oxo-1,2,3,4-tetrahydropyrimidine-5-carbohydrazide]	44.2 ± 0.28	65.31 ± 0.0021	
CC1=C(C(=O)N/N=C/c2ccccc2O)C(c2ccc(F)cc2F)NC(=O)N1 (stereo not shown) [Compound 5b, (E)--4-(2,4-Difluorophenyl)-N-(2-hydroxybenzyldene)-6-methyl-2-oxo-1,2,3,4-tetrahydropyrimidine-5-carbohydrazide]	70.7 ± 0.37	28.13 ± 0.0029	Acute toxicity, mortality [2]: more than half of the animals died; Fasting Blood Glucose ± SEM, On Day 1 [3]: 253.83 ± 4.49 mg/dL; Fasting Blood Glucose ± SEM, On Day 7 [3]: 182.00 ± 8.11 mg/dL; Fasting Blood Glucose ± SEM, On Day 14 [3]: 167.16 ± 6.23 mg/dL; Fasting Blood Glucose ± SEM, On Day 21 [3]: 157.33 ± 5.75 mg/dL; Fasting Blood Glucose ± SEM, On Day 21 ([3]; listed as Compound 5b): 157.33 ± 5.75 mg/dL
COc1ccccc1/C=N/NC(=O)C1=C(C)NC(=O)NC1c1ccc(F)cc1F (stereo not shown) [Compound 5c]	58.54 ± 0.27	37.63 ± 0.0026	
N[C@@H](CC(=O)N1CCn2c(nnc2C(F)(F)F)C1)Cc1cc(F)c(F)cc1F [Sitagliptin, reference compound]			Long-term inhibition ([4]; after 8 h): > 70%; Glucose excursion ([4]; at 8 h): 35%; Fasting Blood Glucose ± SEM, On Day 1 [3]: 240.16 ± 9.88 mg/dL; Fasting Blood Glucose ± SEM, On Day 7 [3]: 178.66 ± 6.92 mg/dL; Fasting Blood Glucose ± SEM, On Day 14 [3]: 175.16 ± 8.61 mg/dL; Fasting Blood Glucose ± SEM, On Day 21 [3]: 133.50 ± 11.80 mg/dL
